According to patent US11673910B2, “Macrolides with modified desosamine sugars and uses thereof” (Zikani Therapeutics, Inc., priority 2017, dated 2023):
≈ marks a conversion by molar mass, not a printed value.

Key:
Format in all cases: cell-based
E. coli strain MP-4 = assay: Broth dilution MIC determination (CLSI) against E. coli strain MP-4; conditions: Escherichia coli, MP4
Experimental: (§1) Minimum inhibitory concentrations (MICs) for macrolides described herein were determined for E. coli strain MP-4, K. pneumoniae strain MP-548, P. aeruginosa strain MP-3, A. baumannii strain MP-15, and S. aureus strain MP-12 using similar test procedures as published in US Pat. Pub. No. 2017/0305953. MIC data is represented as “+++” for values less than or equal to 4 mg/L, “++” for values of greater than or equal to 8 mg/L and less than 32 mg/L, and “+” for values of 32 mg/L or greater. ND indicates no data for a particular compound. CLSI standard procedures for broth dilution MIC determination were used.

S. aureus strain MP-12 = assay: Broth dilution MIC determination (CLSI) against S. aureus strain MP-12; conditions: Staphylococcus aureus, MP12, strain MP-12
Experimental: as §1

[1] = test system: A. baumannii strain MP-15; assay: Broth dilution MIC determination (CLSI) against A. baumannii strain MP-15; conditions: Acinetobacter baumannii, MP15
Experimental: as §1

[2] = test system: P. aeruginosa strain MP-3; assay: Broth dilution MIC determination (CLSI) against P. aeruginosa strain MP-3; conditions: Pseudomonas aeruginosa, MP3
Experimental: as §1

[3] = test system: K. pneumoniae strain MP-548; assay: Broth dilution MIC determination (CLSI) against K. pneumoniae strain MP-548; conditions: Klebsiella pneumoniae, MP548
Experimental: as §1

Row | Structure (SMILES) | MIC (E. coli strain MP-4) [mg/L] | MIC (S. aureus strain MP-12) [mg/L] | MIC [1] [mg/L] | MIC [2] [mg/L] | MIC [3] [mg/L]
1 | CC[C@H]1OC(=O)[C@]2(C)CCO[C@](C)(C[C@@H](C)CN[C@H](C)[C@H]3NC(=O)O[C@@]31C)[C@H](O[C@@H]1O[C@H](CNCc3cccnc3)C[C@H](N(C)C)[C@H]1O)[C@@H](C)C2=O [Compound 200] | 8 to 32 (≈ 10.9 to 43.7 µM) | 8 to 32 (≈ 10.9 to 43.7 µM) | ≥ 32 | ≥ 32 | ≥ 32
2 | CC[C@H]1OC(=O)C(C)C(=O)[C@H](C)[C@@H](OC2OC(CNC(C)C)CC(N(C)C)C2O)[C@](C)(OC)C[C@@H](C)CN[C@H](C)[C@H]2NC(=O)O[C@@]21C (some centres unmarked) [Compound 109, 3-Descladinosyl-3-oxo-6-O-methyl-N9a-desmethyl-11,12-dideoxy-12,11-(oxycarbonylimino)-6′-isopropylamino Azithromycin] | 8 to 32 (≈ 11.9 to 47.7 µM) | ≥ 32 | ≥ 32 | ≥ 32 | ≥ 32
3 | CC[C@H]1OC(=O)C(C)C(=O)[C@H](C)[C@@H](OC2OC(CN(C)C3CCC3)CC(N(C)C)C2O)[C@](C)(OC)C[C@@H](C)CN[C@H](C)[C@H]2NC(=O)O[C@@]21C (some centres unmarked) [Compound 150, 3-Descladinosyl-3-oxo-6-O-methyl-N9a-desmethyl-11,12-dideoxy-12,11-(oxycarbonylimino)-6′-methylcyclobutylamino Azithromycin] | 8 to 32 (≈ 11.5 to 45.9 µM) | ≥ 32 | ≥ 32 | ≥ 32 | ≥ 32
4 | CC[C@H]1OC(=O)C(C)C(=O)[C@H](C)[C@@H](O[C@@H]2O[C@H](CNC(C)C)CC(N(C)C)[C@H]2O)[C@](C)(OC)C[C@@H](C)CN(C)[C@H](C)[C@H]2NC(=O)O[C@@]21C (some centres unmarked) [Compound 164, 3-Descladinosyl-3-oxo-6-O-methyl-11,12-dideoxy-12,11-(oxycarbonylimino)-6′-isopropylamino Azithromycin] | ≤ 4 | ≥ 32 | ≥ 32 | ≥ 32 | 8 to 32 (≈ 11.7 to 46.7 µM)
5 | CC[C@H]1OC(=O)C(C)C(=O)[C@H](C)[C@@H](OC2OC(CNCC(=O)N(C)C)CC(N(C)C)C2O)[C@](C)(OC)C[C@@H](C)CN[C@H](C)[C@H]2NC(=O)O[C@@]21C (some centres unmarked) [Compound 117, 3-Descladinosyl-3-oxo-6-O-methyl-N9a-desmethyl-11,12-dideoxy-12,11-(oxycarbonylimino)-6′-(N—(N,N-dimethylacetamidyl)-amino) Azithromycin] | ≥ 32 | ≥ 32 | ≥ 32 | ≥ 32 | ≥ 32
6 | CC[C@H]1OC(=O)C(C)C(=O)[C@H](C)[C@@H](O[C@@H]2OC(CNCc3cccc(F)c3)CC(N(C)C)C2O)[C@](C)(OC)C[C@@H](C)CN[C@H](C)[C@H]2NC(=O)O[C@@]21C (some centres unmarked) [Compound 30] | ≤ 4 | ≥ 32 | ≥ 32 | ≥ 32 | ≥ 32
7 | CC[C@H]1OC(=O)[C@]2(C)CCO[C@](C)(C[C@@H](C)CN[C@H](C)[C@H]3NC(=O)O[C@@]31C)[C@H](O[C@@H]1O[C@H](CN3CCCCC3)C[C@H](N(C)C)[C@H]1O)[C@@H](C)C2=O [Compound 198] | ≤ 4 | 8 to 32 (≈ 11.3 to 45.1 µM) | ≥ 32 | ≥ 32 | 8 to 32 (≈ 11.3 to 45.1 µM)
8 | CC[C@H]1OC(=O)C(C)C(=O)[C@H](C)[C@@H](OC2OC(CNCCC(F)(F)F)CC(N(C)C)C2O)[C@](C)(OC)C[C@@H](C)CN[C@H](C)[C@H]2NC(=O)O[C@@]21C (some centres unmarked) [Compound 142, 3-Descladinosyl-3-oxo-6-O-methyl-N9a-desmethyl-11,12-dideoxy-12,11-(oxycarbonylimino)-6′-trifluoropropylamino Azithromycin] | ≤ 4 | 8 to 32 (≈ 11 to 44.1 µM) | ≥ 32 | ≥ 32 | 8 to 32 (≈ 11 to 44.1 µM)
9 | CC[C@H]1OC(=O)[C@@]2(C)CCOC(C)(C[C@@H](C)CN(C(=O)C(F)(F)F)[C@H](C)[C@H]3NC(=O)O[C@@]31C)[C@H](O[C@@H]1OC(C)CC(N(C)C)C1O)[C@@H](C)C2=O (some centres unmarked) [Compound 220] | ≥ 32 | ≥ 32 | ≥ 32 | ≥ 32 | ≥ 32
10 | CC[C@H]1OC(=O)[C@@](C)(F)C(=O)[C@H](C)[C@@H](O[C@@H]2OC(CNCc3ccccn3)CC(N(C)C)C2O)[C@](C)(OC)C[C@@H](C)C(=O)[C@H](C)[C@H]2NC(=O)O[C@@]21C (some centres unmarked) [Compound 100] | 8 to 32 (≈ 10.9 to 43.4 µM) | ≤ 4 | ≥ 32 | ≥ 32 | ≥ 32
11 | CC[C@H]1OC(=O)[C@@]2(C)CCO[C@](C)(C[C@@H](C)CN[C@H](C)[C@H]3NC(=O)O[C@@]31C)[C@H](O[C@@H]1O[C@H](CNC3CC3)C[C@H](N(C)C)[C@H]1O)[C@@H](C)C2=O [Compound 202] | ≤ 4 | ≤ 4 | 8 to 32 (≈ 11.7 to 47 µM) | ≥ 32 | ≤ 4
12 | CC[C@H]1OC(=O)[C@]2(C)CC/C(=N\O)CO[C@](C)(C[C@@H](C)CN[C@H](C)[C@H]3NC(=O)O[C@@]31C)[C@H](OC1OC(C)CC(N(C)C)C1O)[C@@H](C)C2=O (some centres unmarked) [Compound 228] | ≥ 32 | ≥ 32 | ≥ 32 | ≥ 32 | ≥ 32

Results, then the compound that gave them:

Row | MIC (E. coli strain MP-4) [mg/L] | MIC (S. aureus strain MP-12) [mg/L] | MIC [1] [mg/L] | MIC [2] [mg/L] | MIC [3] [mg/L] | Structure (SMILES)
13 | 8 to 32 (≈ 10.4 to 41.6 µM) | ≥ 32 | ≥ 32 | ≥ 32 | ≥ 32 | CCCCCCCCCCNCC1CC(N(C)C)C(O)[C@H](O[C@@H]2[C@@H](C)C(=O)C(C)C(=O)O[C@H](CC)[C@@]3(C)OC(=O)N[C@@H]3[C@@H](C)NC[C@H](C)C[C@@]2(C)OC)O1 (some centres unmarked) [Compound 55]
14 | ≤ 4 | ≥ 32 | ≥ 32 | ≥ 32 | ≥ 32 | CC[C@H]1OC(=O)C(C)C(=O)[C@H](C)[C@@H](O[C@@H]2OC(CNCc3ccc4nccnc4c3)CC(N(C)C)C2O)[C@](C)(OC)C[C@@H](C)CN[C@H](C)[C@H]2NC(=O)O[C@@]21C (some centres unmarked) [Compound 23]
15 | ≥ 32 | ≥ 32 | ≥ 32 | ≥ 32 | ≥ 32 | CC[C@H]1OC(=O)C(C)C(=O)[C@H](C)[C@@H](OC2OC(CNCCS(C)(=O)=O)CC(N(C)C)C2O)[C@](C)(OC)C[C@@H](C)CN[C@H](C)[C@H]2NC(=O)O[C@@]21C (some centres unmarked) [Compound 140, 3-Descladinosyl-3-oxo-6-O-methyl-N9a-desmethyl-11,12-dideoxy-12,11-(oxycarbonylimino)-6′-2″-(methylsulfonyl)ethan-1″-amino Azithromycin]
16 | ≤ 4 | ≥ 32 | ≥ 32 | ≥ 32 | 8 to 32 (≈ 11.7 to 46.9 µM) | CC[C@H]1OC(=O)C(C)C(=O)[C@H](C)[C@@H](OC2OC(CN3CCCC3)CC(N(C)C)C2O)[C@](C)(OC)C[C@@H](C)CN[C@H](C)[C@H]2NC(=O)O[C@@]21C (some centres unmarked) [Compound 122, 3-Descladinosyl-3-oxo-6-O-methyl-N9a-desmethyl-11,12-dideoxy-12,11-(oxycarbonylimino)-6′-(1-pyrrolodinyl) Azithromycin]
17 | 8 to 32 (≈ 10.8 to 43.3 µM) | ≤ 4 | ≥ 32 | ≥ 32 | ≥ 32 | CC[C@H]1OC(=O)[C@@](C)(F)C(=O)[C@H](C)[C@@H](O[C@@H]2OC(CNCc3ccn(C)n3)CC(N(C)C)C2O)[C@](C)(OC)C[C@@H](C)C(=O)[C@H](C)[C@H]2NC(=O)O[C@@]21C (some centres unmarked) [Compound 102]
18 | 8 to 32 (≈ 12.7 to 50.8 µM) | ≥ 32 | ≥ 32 | ≥ 32 | ≥ 32 | CC[C@H]1OC(=O)C(C)C(=O)[C@H](C)[C@@H](O[C@@H]2OC(CO)CC(N(C)C)C2O)[C@](C)(OC)C[C@@H](C)CN[C@H](C)[C@H]2NC(=O)O[C@@]21C (some centres unmarked) [Compound 57]
19 | 8 to 32 (≈ 12.4 to 49.8 µM) | ≥ 32 | ≥ 32 | ≥ 32 | ≥ 32 | CC[C@H]1OC(=O)C(C)C(=O)[C@H](C)[C@@H](O[C@@H]2O[C@H](C(C)N)CC(N(C)C)[C@H]2O)[C@](C)(OC)C[C@@H](C)CN[C@H](C)[C@H]2NC(=O)O[C@@]21C (some centres unmarked) [Compound 181, 3-Desdadinosyl-3-oxo-6-O-methyl-N9a-desmethyl-11,12-dideoxy-12,11-(oxycarbonylimino)-6′-aminoethyl Azithromycin]
20 | ≤ 4 | 8 to 32 (≈ 11.4 to 45.8 µM) | ≥ 32 | ≥ 32 | 8 to 32 (≈ 11.4 to 45.8 µM) | CC[C@H]1OC(=O)C(C)C(=O)[C@H](C)[C@@H](OC2OC(CN3CCOCC3)CC(N(C)C)C2O)[C@](C)(OC)C[C@@H](C)CN[C@H](C)[C@H]2NC(=O)O[C@@]21C (some centres unmarked) [Compound 132, 3-Descladinosyl-3-oxo-6-O-methyl-N9a-desmethyl-11,12-dideoxy-12,11-(oxycarbonylimino)-6′-(1-morpholino) Azithromycin]
21 | ≤ 4 | ≥ 32 | ≥ 32 | ≥ 32 | 8 to 32 (≈ 11.6 to 46.6 µM) | CC[C@H]1OC(=O)C(C)C(=O)[C@H](C)[C@@H](OC2OC(CNCCOC)CC(N(C)C)C2O)[C@](C)(OC)C[C@@H](C)CN[C@H](C)[C@H]2NC(=O)O[C@@]21C (some centres unmarked) [Compound 114, 3-Descladinosyl-3-oxo-6-O-methyl-N9a-desmethyl-11,12-dideoxy-12,11-(oxycarbonylimino)-6′-(2-methoxyamino) Azithromycin]
22 | ≥ 32 | ≥ 32 | ≥ 32 | ≥ 32 | ≥ 32 | CC[C@H]1OC(=O)C(C)C(=O)[C@H](C)[C@@H](OC2OC(CNCCN(C)C)CC(N(C)C)C2O)[C@](C)(OC)C[C@@H](C)CN[C@H](C)[C@H]2NC(=O)O[C@@]21C (some centres unmarked) [Compound 130, 3-Descladinosyl-3-oxo-6-O-methyl-N9a-desmethyl-11,12-dideoxy-12,11-(oxycarbonylimino)-6′-[(2-dimethylamino)ethylamino]Azithromycin]
